In experiment [1] the target is T1, Adenosine receptor A3 (Homo sapiens, UniProt P0DMS8).
T1 sequence (P0DMS8 whole entry): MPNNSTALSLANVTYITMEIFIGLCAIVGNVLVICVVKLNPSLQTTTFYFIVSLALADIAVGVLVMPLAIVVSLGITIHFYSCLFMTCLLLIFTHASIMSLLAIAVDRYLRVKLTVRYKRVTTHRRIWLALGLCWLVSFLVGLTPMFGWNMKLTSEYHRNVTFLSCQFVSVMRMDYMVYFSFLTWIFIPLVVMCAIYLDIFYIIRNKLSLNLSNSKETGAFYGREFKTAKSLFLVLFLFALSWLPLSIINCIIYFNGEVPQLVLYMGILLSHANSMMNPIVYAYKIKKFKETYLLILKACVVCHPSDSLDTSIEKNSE
Kind of experiment: Inhibition of [125 I]-IABMECA binding to human adenosine A3 receptor.

Experiment [2] deals with T2, Adenosine receptor A1 (Homo sapiens, UniProt P30542).
T2 sequence (P30542 whole entry): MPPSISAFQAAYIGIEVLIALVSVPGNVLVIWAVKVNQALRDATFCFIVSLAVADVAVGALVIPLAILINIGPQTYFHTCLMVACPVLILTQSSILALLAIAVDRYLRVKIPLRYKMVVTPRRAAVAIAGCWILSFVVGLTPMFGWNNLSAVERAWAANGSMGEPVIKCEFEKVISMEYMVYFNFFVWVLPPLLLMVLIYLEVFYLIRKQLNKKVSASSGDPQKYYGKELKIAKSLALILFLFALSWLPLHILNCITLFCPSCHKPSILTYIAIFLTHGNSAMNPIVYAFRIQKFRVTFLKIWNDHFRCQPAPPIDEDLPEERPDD
Description: In vitro binding affinity towards human adenosine A1 receptor by [3H]DPCPX displacement.

Experiment [3] deals with T3, Adenosine receptor A2a (Homo sapiens, UniProt P29274).
Description: Tested for binding affinity towards human adenosine A2A receptor using [3H]ZM-241385 as radioligand
Experiment [4] addresses T4, Adenosine receptor A2b (Homo sapiens) (UniProt P29275).
T4 sequence (whole entry): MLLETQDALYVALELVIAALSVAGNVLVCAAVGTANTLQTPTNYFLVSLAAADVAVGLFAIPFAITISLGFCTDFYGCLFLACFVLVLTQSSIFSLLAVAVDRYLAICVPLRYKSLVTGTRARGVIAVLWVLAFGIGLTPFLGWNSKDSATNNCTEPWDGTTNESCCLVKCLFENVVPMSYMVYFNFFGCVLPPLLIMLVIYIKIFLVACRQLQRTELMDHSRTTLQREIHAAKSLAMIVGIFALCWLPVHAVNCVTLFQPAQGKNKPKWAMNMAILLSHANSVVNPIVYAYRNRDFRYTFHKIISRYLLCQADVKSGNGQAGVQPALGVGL
The experiment in a line: In vitro binding affinity towards human adenosine A2B receptor by [3H]DPCPX displacement at 10 uM.

In experiment [5] the target is T3, Adenosine receptor A2a. Kind of experiment: Binding affinity for human Adenosine A2A receptor using [3H]ZM-241385.
The target in experiment [6] is T4, Adenosine receptor A2b (Homo sapiens). The experiment in a line: Binding affinity for human adenosine A2B receptor using [3H]DPCPX at 10 uM as percent displacement.
Experiment [7] has as its target T1, Adenosine receptor A3. Kind of experiment: Binding affinity for human Adenosine A3 receptor using [125 I]-IABMECA.
Experiment [8] addresses T3, Adenosine receptor A2a. The experiment in a line: Percent displacement of [3H]ZM-241,385 from human adenosine A2A receptor at 10 uM.
The target in experiment [9] is T5, Adenosine receptor A1 (Homo sapiens) (UniProt P30542).
T5 sequence (whole entry): T2 sequence (P30542 whole entry)
Kind of experiment: Percent displacement of [3H]DPCPX from human adenosine A1 receptor at 10 uM. (In general: Loss of bound radioactivity is the signal in a displacement assay; it reports binding, not function.)

Experiment [10] deals with T5, Adenosine receptor A1 (Homo sapiens). Kind of experiment: Binding affinity for human adenosine A1 receptor using [3H]DPCPX; insoluble.
Experiment [11] has as its target T4, Adenosine receptor A2b (Homo sapiens). Kind of experiment: Percent displacement of [3H]DPCPX from human adenosine A2B receptor at 10 uM; insoluble.
In experiment [12] the target is T6, Adenosine receptor A3 (Homo sapiens) (UniProt P0DMS8).
T6 sequence (whole entry): T1 sequence (P0DMS8 whole entry)
Kind of experiment: Binding affinity for human adenosine A3 receptor using [125 I]-IABMECA; insoluble.

For experiment [13], the target named is T3, Adenosine receptor A2a. The experiment in a line: Binding affinity for human adenosine A2A receptor using [3H]ZM-241385; insoluble.
The target in experiment [14] is T5, Adenosine receptor A1 (Homo sapiens). Kind of experiment: Relative potency for human adenosine A1 receptor (Ki value).
Experiment [15] has as its target T6, Adenosine receptor A3 (Homo sapiens). The experiment in a line: Relative potency for human adenosine A3 receptor (Ki value).
The target of experiment [16] is T2, Adenosine receptor A1. Kind of experiment: Inhibition of cAMP formation in CHO cells expressing human adenosine A1 receptor. The format is cell-based. In general terms: cAMP levels reflect the balance of adenylyl cyclase and phosphodiesterase activity.
Experiment [17] addresses Adenosine receptors; A1 & A3 (Homo sapiens) (UniProt P30542+P0DMS8). Kind of experiment: Selectivity for adenosine A1 and A3 receptors. The experiment is classed as protein assay.

T3 sequence (P29274 whole entry): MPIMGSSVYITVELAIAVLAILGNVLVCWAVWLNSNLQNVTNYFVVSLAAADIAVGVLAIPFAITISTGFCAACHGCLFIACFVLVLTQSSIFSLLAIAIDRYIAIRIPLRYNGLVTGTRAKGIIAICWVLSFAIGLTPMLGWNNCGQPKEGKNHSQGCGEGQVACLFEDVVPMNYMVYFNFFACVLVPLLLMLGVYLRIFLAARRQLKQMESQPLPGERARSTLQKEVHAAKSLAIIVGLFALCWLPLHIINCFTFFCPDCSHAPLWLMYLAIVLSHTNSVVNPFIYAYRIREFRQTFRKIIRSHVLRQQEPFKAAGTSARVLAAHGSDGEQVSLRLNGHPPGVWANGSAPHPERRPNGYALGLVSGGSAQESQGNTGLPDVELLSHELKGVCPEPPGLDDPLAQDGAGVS

For orientation: Ki means a dissociation constant, usually derived from enzyme kinetics or from competition with a known ligand. A high value points to a looser hold on the target. With `O=C(N/N=N/c1nc(Nc2ccccc2)c2ncn([C@@H]3O[C@H](CO)[C@@H](O)[C@H]3O)c2n1)Nc1ccccc1`, the Ki stood at 90 nM at Adenosine receptor A3 [1], 430 nM at Adenosine receptor A1 [2] and 24.3 nM at Adenosine receptor A2a [3]. Also, in [4], the Displacement came out at 9%.
Take `Nc1nc(/N=N/NC(=O)c2ccccc2)nc2c1ncn2[C@@H]1O[C@H](CO)[C@@H](O)[C@H]1O`: the values for the Ki at Adenosine receptor A2a [5], at Adenosine receptor A1 [2] and on Adenosine receptor A3 [7] were 1000 nM, 1900 nM and 190 nM, respectively. The Displacement in [6] was 8%.
As for `Nc1nc(/N=N/NC(=O)Oc2ccccc2)nc2c1ncn2C1O[C@H](CO)[C@@H](O)[C@H]1O` (some centres undefined), the Displacement in experiment [4] amounted to 6%; at Adenosine receptor A2a [8], 38.9%; in experiment [9] it was 43%.
As for `CCNC(=O)/N=N/Nc1nc(N)c2ncn([C@@H]3O[C@H](CO)[C@@H](O)[C@H]3O)c2n1`, the Ki on Adenosine receptor A2a [5] was found to be 19 nM; on Adenosine receptor A1 [2], 45 nM; at Adenosine receptor A3 [7], 113 nM. The Displacement in experiment [4] is 15%.
Take `Nc1nc(/N=N/NC(=O)Nc2cccc(C(F)(F)F)c2)nc2c1ncn2C1O[C@H](CO)[C@@H](O)[C@H]1O` (some centres undefined): the Other entry (in experiment [10]; in [11]; in experiment [12]; on Adenosine receptor A2a [13]) was “Insoluble” throughout.
With `Nc1nc(/N=N/NC(=O)Nc2ccccc2Cl)nc2c1ncn2[C@@H]1O[C@H](CO)[C@@H](O)[C@H]1O`, the results for the Ki on Adenosine receptor A3 [1], on Adenosine receptor A1 [2] and on Adenosine receptor A2a [3] were 179 nM, 23 nM and 45 nM, respectively. In experiment [4], the Displacement was 30%.
Turning to `Nc1nc(N=O)nc2c1ncn2[C@@H]1O[C@H](CO)[C@@H](O)[C@H]1O`, the results for the Ki at Adenosine receptor A2a [5] and at Adenosine receptor A3 [7] were 720 nM and 580 nM, respectively. For the same compound, the Displacement is 14% in experiment [6] and 40% in experiment [9].
`Nc1nc(/N=N/NC(=O)Nc2ccccc2)nc2c1ncn2[C@@H]1O[C@H](CO)[C@@H](O)[C@H]1O`: the Ki at Adenosine receptor A2a [5] was 25 nM; on Adenosine receptor A1 [2], 6.1 nM; at Adenosine receptor A3 [7], 110 nM. The Displacement in experiment [4] is 54%.
With `Nc1nc(/N=N/NC(=O)Nc2ccc(Cl)cc2)nc2c1ncn2[C@@H]1O[C@H](CO)[C@@H](O)[C@H]1O`, the Ki is 15 nM on Adenosine receptor A1 [2] and 39 nM on Adenosine receptor A3 [7]. For the same compound, the results for the Displacement (in experiment [4]; at Adenosine receptor A2a [8]) were 21% and 4.4%, respectively.
On to `O=C(N/N=N/c1nc(NCC(c2ccccc2)c2ccccc2)c2ncn([C@@H]3O[C@H](CO)[C@@H](O)[C@H]3O)c2n1)Nc1ccccc1`, for which the Ki on Adenosine receptor A3 [1] is 140 nM; at Adenosine receptor A1 [2], 3.1 nM; on Adenosine receptor A2a [3], 980 nM. In experiment [4], this compound displayed a Displacement of 10%.
`Nc1nc(NN=NC(=O)Oc2ccccc2)nc2c1ncn2C1O[C@H](CO)[C@@H](O)[C@H]1O` (some centres undefined): at Adenosine receptor A3 [1], the affinity corresponds to a Ki of 577 nM.
Take `Nc1nc(/N=N/NC(=O)Nc2cccc(Cl)c2)nc2c1ncn2C1O[C@H](CO)[C@@H](O)[C@H]1O` (some centres undefined): the Displacement is 64% in experiment [4] and 29.9% at Adenosine receptor A2a [8].
Compound `OC[C@H]1O[C@@H](n2cnc3c(NC4CCCC4)nc(Cl)nc32)[C@H](O)[C@@H]1O` yielded a Ki on Adenosine receptor A2a [3] of 639 nM.
As to `Nc1nc(/N=N/c2ccccc2)nc2c1ncn2[C@@H]1O[C@H](CO)[C@@H](O)[C@H]1O`, the Ki on Adenosine receptor A2a [5] was 180 nM; on Adenosine receptor A3 [7], 110 nM. The same compound had a Displacement in [6] of 11%.
One may read the IC50 as the concentration that inhibits the measured activity by half. A lower IC50 goes with greater potency. Turning to `O=C(N/N=N/c1nc(NC2CCCC2)c2ncn([C@@H]3O[C@H](CO)[C@@H](O)[C@H]3O)c2n1)Nc1ccccc1`, the Ki at Adenosine receptor A3 [1] amounted to 600 nM; on Adenosine receptor A1 [2], 2.8 nM; at Adenosine receptor A2a [3], 210 nM. In addition, the Relative potency in experiment [14] and in experiment [15] was 1 throughout. In addition, the IC50 against Adenosine receptor A1 [16] was 1.5 nM. The Selectivity in [17] stood at 214. This compound gave a Displacement in [4] of 10%.
For the compound `NC(=O)/N=N/Nc1nc(N)c2ncn([C@@H]3O[C@H](CO)[C@@H](O)[C@H]3O)c2n1`, the Ki amounted to 88 nM on Adenosine receptor A2a [5], 140 nM on Adenosine receptor A1 [2] and 209 nM at Adenosine receptor A3 [7]. For the same compound, in [4], the Displacement was 9%.
For the compound `Nc1nc(N=NNC(=O)Nc2cccc(Cl)c2)nc2c1ncn2C1O[C@H](CO)[C@@H](O)[C@H]1O` (some centres undefined), the Ki is 15 nM on Adenosine receptor A1 [2] and 59 nM at Adenosine receptor A3 [7].
In the case of `NC(=O)/N=N/Nc1nc(Nc2ccccc2)c2ncn([C@@H]3O[C@H](CO)[C@@H](O)[C@H]3O)c2n1`, the results for the Ki on Adenosine receptor A3 [1] and on Adenosine receptor A1 [2] were 175 nM and 204 nM, respectively. The Displacement in experiment [4] is 10%; on Adenosine receptor A2a [8], 17.7%.
As to `COc1ccccc1NC(=O)/N=N/Nc1nc(N)c2ncn([C@@H]3O[C@H](CO)[C@@H](O)[C@H]3O)c2n1`, the Ki on Adenosine receptor A3 [1] is 81 nM; at Adenosine receptor A1 [2] it was 20 nM; at Adenosine receptor A2a [3], 125 nM. In experiment [4], the Displacement was 18%.
On the same counts, the results for `COc1ccc(NC(=O)/N=N/Nc2nc(N)c3ncn([C@@H]4O[C@H](CO)[C@@H](O)[C@H]4O)c3n2)cc1` are 73 nM, 20 nM, 25 nM and 15%.
`Nc1nc(/N=N/NC(=O)Nc2nccs2)nc2c1ncn2[C@@H]1O[C@H](CO)[C@@H](O)[C@H]1O`: the Ki amounted to 610 nM at Adenosine receptor A3 [1], 24 nM on Adenosine receptor A1 [2] and 25 nM at Adenosine receptor A2a [3]. For the same compound, the Displacement in [4] is 79%.
Regarding `Nc1nc(/N=N/NC(=O)NC2CCCCC2)nc2c1ncn2[C@@H]1O[C@H](CO)[C@@H](O)[C@H]1O`, the Ki at Adenosine receptor A2a [5] is 25 nM; at Adenosine receptor A1 [2], 5.8 nM; on Adenosine receptor A3 [7], 63 nM. The same compound returned a Displacement in experiment [4] of 6%.
In the case of `Nc1nc(/N=N/NC(=O)NCc2ccccc2)nc2c1ncn2[C@@H]1O[C@H](CO)[C@@H](O)[C@H]1O`, the Ki on Adenosine receptor A3 [1] came out at 147 nM; at Adenosine receptor A1 [2] it was 42 nM; at Adenosine receptor A2a [3], 25 nM. The same compound showed a Displacement in [4] of 9%.

These data come from ChEMBL document CHEMBL1136764, “N6-cyclopentyl-2-(3-phenylaminocarbonyltriazene-1-yl)adenosine (TCPA), a very selective agonist with high affinity for the human adenosine A1 receptor” (J Med Chem, 2003).
